Assay results from US10259781B2, “Imaging agents” (THE REGENTS OF THE UNIVERSITY OF MICHIGAN, priority 2012, dated 2019).
Entries after “also recorded” stand apart in the source; their conditions may differ.

Legend:
[1] = tested on: cardiac sympathetic neurons; test: Isolated working rat heart model: neuronal uptake and clearance kinetics
Protocol: The radiotracer was infused into the heart for 10 minutes to measure the tracer uptake rate into cardiac sympathetic neurons (Kup, shown in units of ml/min/g tissue wet). Then, the heart was infused with normal heart perfusate to measure the tracer clearance rate from the heart over 2 hours.
Experiments were conducted to test ^11C-phenoxyethylguanidine (PEG), e.g., to establish baseline values for the NET transport rate (Kup, expressed in units of mL perfusate/min/g wet) and the clearance rate from sympathetic neurons (T1/2, expressed in units of hours).

[2] = tested on: adrenal glands; test: Uptake into adrenal glands, microPET; format: in vivo, rhesus macaque monkey; settings: DMI block of NET
Text: To assess the ability of [^18F]4F-MHPG to serve an additional clinical role as a marker of adrenergic tumors such as neuroblastoma and pheochromocytoma, data were collected to examine the uptake of [^18F]4F-MHPG into the adrenal gland. In control studies, the adrenal glands took up sufficient [^18F]4F-MHPG to be visualized, especially on the right side of the transaxial images, which was better separated from the kidney than the contralateral adrenal gland. There was also significant uptake in the cortex of the kidney. The kinetics of [^18F]4F-MHPG in the adrenal gland are very similar to those seen in the heart. In the DMI block study above, the adrenal glands were scanned for 10 minutes following the 90 minute cardiac study.

[3] = Human radiation absorbed dose estimates, OLINDA/EXM 1.0, from rat biodistribution
Protocol: During the development of embodiments of the technology provided herein, the biodistribution of [^18F]4F-MHPG into the organs of rats was assessed. In particular, four time points (Table 3) were collected and used to derive human radiation absorbed dose estimates using the OLINDA/EXM 1.0 software package (see, e.g., Stabin et al. (2005) “OLINDA/EXM; the second-generation personal computer software for internal dose assessment in nuclear medicine”, J Nucl Med. 46: 1023-7). […] These values were entered into the Dynamic Bladder model of OLINDA/EXM, assuming a 4.0-hour void interval. Organs with the highest absorbed dose estimates included the urinary bladder wall (0.666 rad/mCi), […] (0.221 rad/mCi), small intestine (0.201 rad/mCi), and the heart wall (0.201 rad/mCi). An ‘effective dose’ of 0.091 rem/mCi was estimated for [^18F]4F-MHPG. Under United States Federal Regulations governing research with a new radiopharmaceutical (21 CFR § 361.1), the maximum allowable radiation absorbed dose to an individual organ (other than the gonads) is 5 rad. Considering the maximum estimated absorbed dose (urinary bladder wall; 0.666 rad/mCi), initial PET studies in human subjects could use a maximum of 7.5 mCi of [^18F]4F-MHPG. This would correspond to an ‘effective dose’ of 0.68 rem.

[4] = tested on: cardiac sympathetic nerve terminals; test: MicroPET imaging and myocardial kinetics (compartmental modeling, Patlak graphical analysis) in monkeys; format: in vivo, rhesus macaque monkey
Protocol: A series of microPET imaging studies were performed in the macaque model to assess image quality and tracer kinetics. In most of these the time course of the metabolic breakdown of [^18F]4F-MHPG in plasma was also determined. The studies are summarized below in Table 1.
During the development of embodiments of the technology provided herein, the kinetics of [^18F]4F-MHPG in monkey hearts was assessed using either compartmental modeling or Patlak graphical analysis to obtain quantitative measures of regional cardiac sympathetic nerve density.
For some analyses, a simplified compartmental model that assumed irreversible trapping inside nerve terminals was used to estimate the model rate constants K1 (ml/min/g), k2 (min^−1), k3 (min^−1), and a blood volume fraction BV (dimensionless) (see, e.g., FIG. 7). In both the control studies and DMI blocking studies, the model quickly converged to a single global minimum in just a few iterations of the nonlinear regression analysis (FIG. 8). […] This aggregate parameter provides a stable measure of cardiac nerve density that declined in a dose-dependent manner with increasing DMI dose (FIG. 9, “Kinetic modeling”).
For some analyses, Patlak graphical analysis was used, which uses a mathematical transformation of the kinetic data Cp(t) and Ct(t) to generate a Tatlak plot′ having a characteristic linear phase (see, e.g., Patlak and Blasberg (1985) “Graphical evaluation of blood-to-brain transfer constants from multiple-time uptake data. Generalizations.” J Cereb Blood Flow 5: 584-90). The slope of the linear portion of a Patlak plot, Kp (ml/min/g), provides an alternate estimate of the ‘net uptake rate constant’ Ki (ml/min/g). Thus, for the model structure used (FIG. 7), the slope of the Patlak plot is given by Kp≈(K1k3)/(k2+k3).
During the development of embodiments of the technology provided herein, the myocardial kinetics of [^18F]4F-MHPG was assessed using Patlak graphical analysis and metabolite-corrected plasma input functions. In this example, the Patlak plot is highly linear (r^2=1.00) and the estimated Patlak slope Kpatlak=0.252 ml/min/g. […] As such, regional estimates of the Patlak slope from Patlak analysis of the kinetics of [^18F]4F-MHPG serve as robust measures of regional cardiac sympathetic nerve density in patients with heart diseases.

effective dose for a maximum of 7.5 mCi ([3]; initial PET studies in human subjects, 7.5 mCi): 0.68 rem
Effective dose ([3]; reference adult male model): 0.091 rem/mCi
Effective dose, Dose for 10 mCi ([3]; reference adult male model): 0.91 rem
Radiation absorbed dose estimate, Dose for 10 mCi, Adrenals ([3]; reference adult male model): 0.59 rad
Radiation absorbed dose estimate, Dose for 10 mCi, Brain ([3]; reference adult male model): 0.25 rad
Radiation absorbed dose estimate, Dose for 10 mCi, Breasts ([3]; reference adult male model): 0.26 rad
Radiation absorbed dose estimate, Dose for 10 mCi, Gallbladder wall ([3]; reference adult male model): 0.61 rad
Radiation absorbed dose estimate, Dose for 10 mCi, Heart wall ([3]; reference adult male model): 1.09 rad
Radiation absorbed dose estimate, Dose for 10 mCi, Kidneys ([3]; reference adult male model): 0.78 rad
Radiation absorbed dose estimate, Dose for 10 mCi, LLI wall ([3]; reference adult male model): 1.07 rad
Radiation absorbed dose estimate, Dose for 10 mCi, Liver ([3]; reference adult male model): 0.96 rad
Radiation absorbed dose estimate, Dose for 10 mCi, Lungs ([3]; reference adult male model): 0.35 rad
Radiation absorbed dose estimate, Dose for 10 mCi, Muscle ([3]; reference adult male model): 0.37 rad
Radiation absorbed dose estimate, Dose for 10 mCi, Osteogenic cells ([3]; reference adult male model): 0.49 rad
Radiation absorbed dose estimate, Dose for 10 mCi, Ovaries ([3]; reference adult male model): 0.88 rad
Radiation absorbed dose estimate, Dose for 10 mCi, Pancreas ([3]; reference adult male model): 0.63 rad
Radiation absorbed dose estimate, Dose for 10 mCi, Red marrow ([3]; reference adult male model): 0.37 rad
Radiation absorbed dose estimate, Dose for 10 mCi, Skin ([3]; reference adult male model): 0.26 rad
Radiation absorbed dose estimate, Dose for 10 mCi, Small intestine ([3]; reference adult male model): 2.01 rad
Radiation absorbed dose estimate, Dose for 10 mCi, Spleen ([3]; reference adult male model): 0.79 rad
Radiation absorbed dose estimate, Dose for 10 mCi, Stomach wall ([3]; reference adult male model): 0.48 rad
Radiation absorbed dose estimate, Dose for 10 mCi, Testes ([3]; reference adult male model): 0.41 rad
Radiation absorbed dose estimate, Dose for 10 mCi, Thymus ([3]; reference adult male model): 0.33 rad
Radiation absorbed dose estimate, Dose for 10 mCi, Thyroid ([3]; reference adult male model): 0.29 rad
Radiation absorbed dose estimate, Dose for 10 mCi, Total body ([3]; reference adult male model): 0.41 rad
Radiation absorbed dose estimate, Dose for 10 mCi, ULI wall ([3]; reference adult male model): 2.21 rad
Radiation absorbed dose estimate, Dose for 10 mCi, Urinary bladder wall ([3]; reference adult male model): 6.66 rad
Radiation absorbed dose estimate, Dose for 10 mCi, Uterus ([3]; reference adult male model): 1.03 rad
Radiation absorbed dose estimate, Total dose, Adrenals ([3]; reference adult male model): 0.059 rad/mCi
Radiation absorbed dose estimate, Total dose, Brain ([3]; reference adult male model): 0.025 rad/mCi
Radiation absorbed dose estimate, Total dose, Breasts ([3]; reference adult male model): 0.026 rad/mCi
Radiation absorbed dose estimate, Total dose, Gallbladder wall ([3]; reference adult male model): 0.061 rad/mCi
Radiation absorbed dose estimate, Total dose, Heart wall ([3]; reference adult male model): 0.109 rad/mCi
Radiation absorbed dose estimate, Total dose, Kidneys ([3]; reference adult male model): 0.078 rad/mCi
Radiation absorbed dose estimate, Total dose, LLI wall ([3]; reference adult male model): 0.107 rad/mCi
Radiation absorbed dose estimate, Total dose, Liver ([3]; reference adult male model): 0.096 rad/mCi
Radiation absorbed dose estimate, Total dose, Lungs ([3]; reference adult male model): 0.035 rad/mCi
Radiation absorbed dose estimate, Total dose, Muscle ([3]; reference adult male model): 0.037 rad/mCi
Radiation absorbed dose estimate, Total dose, Osteogenic cells ([3]; reference adult male model): 0.049 rad/mCi
Radiation absorbed dose estimate, Total dose, Ovaries ([3]; reference adult male model): 0.088 rad/mCi
Radiation absorbed dose estimate, Total dose, Pancreas ([3]; reference adult male model): 0.063 rad/mCi
Radiation absorbed dose estimate, Total dose, Red marrow ([3]; reference adult male model): 0.037 rad/mCi
Radiation absorbed dose estimate, Total dose, Skin ([3]; reference adult male model): 0.026 rad/mCi
Radiation absorbed dose estimate, Total dose, Small intestine ([3]; reference adult male model): 0.201 rad/mCi
Radiation absorbed dose estimate, Total dose, Spleen ([3]; reference adult male model): 0.079 rad/mCi
Radiation absorbed dose estimate, Total dose, Stomach wall ([3]; reference adult male model): 0.048 rad/mCi
Radiation absorbed dose estimate, Total dose, Testes ([3]; reference adult male model): 0.041 rad/mCi
Radiation absorbed dose estimate, Total dose, Thymus ([3]; reference adult male model): 0.033 rad/mCi
Radiation absorbed dose estimate, Total dose, Thyroid ([3]; reference adult male model): 0.029 rad/mCi
Radiation absorbed dose estimate, Total dose, Total body ([3]; reference adult male model): 0.041 rad/mCi
Radiation absorbed dose estimate, Total dose, ULI wall ([3]; reference adult male model): 0.221 rad/mCi
Radiation absorbed dose estimate, Total dose, Urinary bladder wall ([3]; reference adult male model): 0.666 rad/mCi
Radiation absorbed dose estimate, Total dose, Uterus ([3]; reference adult male model): 0.103 rad/mCi
net uptake rate constant Ki = (K1k3)/(k2+k3) ([4]; compartmental modeling, control studies, monkey heart): 0.341 ± 0.041 mL/min/g
in vivo defluorination ([4]; faint uptake in spinal column bones): little in vivo defluorination
liver uptake compared with [11C]HED or [123I]MIBG ([4]; microPET control studies): much lower
uptake in the lungs and liver ([4]; microPET control studies): very low uptake
Compound: N=C(N)NCCc1ccc(F)c(O)c1 [[^18F]4F-MHPG] [4-[^18F]fluoro-meta-hydroxy-phenethylguanidine]
kinetics compared with [11C]4F-MHPG [1]: almost identical
uptake into the adrenal glands under DMI block [2]: No uptake; also recorded: completely absent
average measured Patlak slope Kp ([4]; control studies, FIG. 11): 0.302 ± 0.031 mL/min/g
estimated Patlak slope Kpatlak ([4]; one control study, rhesus macaque, FIG. 10): 0.252 mL/min/g
